Test [1] has as its system G28A (RNA, aptamer) GGACGCGACCGAAAUGGUGAAGGACGGAUCCAGUGCGAAACACGCACUGUUGAGUAGAGUGUGAGCUCCGUAACUGGUCGCGUC
Briefly: fluorescence activation titration, Hill fit. The note with it: 100 mM K+, 5 mM Mg2+; 30 nM RNA; 10 mM Tris pH 7.5.

The subject of test [2] is dU50 (RNA, aptamer, 2'-deoxyuridine at 37 (U50 in full-length numbering)) GGGGAGAAGGACGGGUCCAGUGCGAAACACGCACUGUUGAGUAGAGUGUGAGCUCCC
Briefly: fluorescence activation titration, Hill fit. The note with it: 100 mM K+, 5 mM Mg2+; 30 nM RNA; 10 mM Tris pH 7.5.

A word on the KD: it is a measure of binding affinity in units of concentration. Consider `CC1=N/C(=C\c2cc(F)c(O)c(F)c2)C(=O)N1C`, for which the dissociation constant (KD) worked out at 4400 ± 800 nM in test [1] and 1100 ± 300 nM in test [2].

The values above are taken from publication PMC4104137 (2014).
